Assays:
[1] = Selectivity index, ratio of IC50 for equine serum BChE to IC50 for electric eel AChE
[2] = Selectivity index, ratio of IC50 for electric eel AChE to IC50 for equine serum BChE
Acetylcholinesterase = Acetylcholinesterase (Electrophorus electricus, UniProt O42275); test: Inhibition of electric eel AChE using acetylthiocholine iodide as substrate preincubated for 15 mins followed by substrate addition and measured after 30 mins by Ellman's method
Cholinesterase = Cholinesterase (Equus caballus, UniProt P81908); test: Inhibition of equine serum BChE using butyrylthiocholine chloride as substrate preincubated for 15 mins followed by substrate addition and measured after 30 mins by Ellman's method
Chain of Cholinesterase (P81908 whole entry): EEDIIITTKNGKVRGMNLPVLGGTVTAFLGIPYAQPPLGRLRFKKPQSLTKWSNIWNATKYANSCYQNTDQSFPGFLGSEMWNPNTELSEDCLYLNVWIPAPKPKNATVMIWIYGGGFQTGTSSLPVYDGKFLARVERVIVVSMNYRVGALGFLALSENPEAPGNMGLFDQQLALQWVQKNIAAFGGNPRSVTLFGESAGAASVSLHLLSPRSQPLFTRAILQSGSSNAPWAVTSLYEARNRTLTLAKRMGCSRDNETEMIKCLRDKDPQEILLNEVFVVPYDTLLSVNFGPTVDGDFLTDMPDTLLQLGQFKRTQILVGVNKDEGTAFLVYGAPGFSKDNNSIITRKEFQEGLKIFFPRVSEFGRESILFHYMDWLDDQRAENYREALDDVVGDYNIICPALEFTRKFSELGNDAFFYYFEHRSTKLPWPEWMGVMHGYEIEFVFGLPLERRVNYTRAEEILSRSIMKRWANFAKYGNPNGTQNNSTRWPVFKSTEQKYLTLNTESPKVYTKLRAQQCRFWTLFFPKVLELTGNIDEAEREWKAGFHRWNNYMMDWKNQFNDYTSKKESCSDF

Chain of Acetylcholinesterase (O42275 whole entry): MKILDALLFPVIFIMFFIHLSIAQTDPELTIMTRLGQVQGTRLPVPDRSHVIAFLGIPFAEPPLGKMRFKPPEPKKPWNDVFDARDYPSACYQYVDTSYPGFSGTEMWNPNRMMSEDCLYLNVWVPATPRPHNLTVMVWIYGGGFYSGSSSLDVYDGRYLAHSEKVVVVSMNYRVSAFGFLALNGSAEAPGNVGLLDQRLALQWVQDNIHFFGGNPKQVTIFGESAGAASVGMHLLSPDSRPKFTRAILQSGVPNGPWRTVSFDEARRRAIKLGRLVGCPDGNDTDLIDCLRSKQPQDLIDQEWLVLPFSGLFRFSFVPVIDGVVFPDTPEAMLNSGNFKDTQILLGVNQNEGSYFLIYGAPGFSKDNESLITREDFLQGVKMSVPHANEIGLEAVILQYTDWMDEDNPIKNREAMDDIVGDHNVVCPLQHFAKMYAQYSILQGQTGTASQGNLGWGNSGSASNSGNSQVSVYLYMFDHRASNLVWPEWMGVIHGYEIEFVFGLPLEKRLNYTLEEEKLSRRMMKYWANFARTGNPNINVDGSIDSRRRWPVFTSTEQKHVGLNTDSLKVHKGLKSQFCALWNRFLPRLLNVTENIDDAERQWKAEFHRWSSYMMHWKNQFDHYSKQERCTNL

| Structure (SMILES) | Ratio IC50 [1] | Ratio IC50 [2] | IC50 (Acetylcholinesterase) | IC50 (Cholinesterase) |
| --- | --- | --- | --- | --- |
| O=C1/C(=C/c2ccc(Br)cc2)CNCC12C(c1ccc(Br)cc1)C(Cc1c[nH]c3ccccc13)NC21c2ccccc2C2N=c3ccccc3=NC21 (stereo not given) | 1.35 | 0.74 | 15.2 µM | 20.6 µM |
| Cc1ccccc1/C=C1\CNCC2(C1=O)C(c1ccccc1C)C(Cc1c[nH]c3ccccc13)NC21c2ccccc2C2N=c3ccccc3=NC21 (stereo not given) | 2.54 | 0.39 | 5.8 µM | 14.7 µM |
| O=C1/C(=C/c2ccc(Cl)cc2)CNCC12C(c1ccc(Cl)cc1)C(Cc1c[nH]c3ccccc13)NC21c2ccccc2C2N=c3ccccc3=NC21 (stereo not given) | 1.5 | 0.67 | 12.5 µM | 18.8 µM |
| COc1ccc(/C=C2\CNCC3(C2=O)C(c2ccc(OC)cc2)C(Cc2c[nH]c4ccccc24)NC32c3ccccc3C3N=c4ccccc4=NC32)cc1 (stereo not given) | 3.22 | 0.31 | 7.2 µM | 23.2 µM |
| Cc1ccc(/C=C2\CNCC3(C2=O)C(c2ccc(C)cc2)C(Cc2c[nH]c4ccccc24)NC32c3ccccc3C3N=c4ccccc4=NC32)cc1 (stereo not given) | 3.85 | 0.26 | 3.22 µM | 12.4 µM |
| O=C1/C(=C/c2ccc(Cl)cc2Cl)CNCC12C(c1ccc(Cl)cc1Cl)C(Cc1c[nH]c3ccccc13)NC21c2ccccc2C2N=c3ccccc3=NC21 (stereo not given) | 1.73 | 0.58 | 10.2 µM | 17.6 µM |
| O=C1/C(=C/c2ccccc2)CNCC12C(c1ccccc1)C(Cc1c[nH]c3ccccc13)NC21c2ccccc2C2N=c3ccccc3=NC21 (stereo not given) | 1.93 | 0.52 | 7.35 µM | 14.2 µM |
| O=C1/C(=C/c2ccccc2Cl)CNCC12C(c1ccccc1Cl)C(Cc1c[nH]c3ccccc13)NC21c2ccccc2C2N=c3ccccc3=NC21 (stereo not given) | 1.63 | 0.62 | 16.4 µM | 26.7 µM |
| Cc1cccc(/C=C2\CNCC3(C2=O)C(c2cccc(C)c2)C(Cc2c[nH]c4ccccc24)NC32c3ccccc3C3N=c4ccccc4=NC32)c1 (stereo not given) | 2.22 | 0.45 | 6.84 µM | 15.2 µM |
| O=C1/C(=C/c2cccc([N+](=O)[O-])c2)CNCC12C(c1cccc([N+](=O)[O-])c1)C(Cc1c[nH]c3ccccc13)NC21c2ccccc2C2N=c3ccccc3=NC21 (stereo not given) | 5.2 | 0.19 | 2.01 µM | 10.5 µM |

Source: ChEMBL document CHEMBL4390687, “Dispiropyrrolidinyl-piperidone embedded indeno[1,2-b]quinoxaline heterocyclic hybrids: Synthesis, cholinesterase inhibitory activity and their molecular docking simulation” (Bioorg Med Chem, 2019)
